We go through 33 molecules from PubChem BioAssay AID463199 (Broad Institute, 2010).

A word on the AC50: it is the concentration giving half of the maximal activity seen.

Active and inactive are the calls of the source.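 How the source made its calls: active means AC50, the dose giving half-maximal effect, exceeds a fixed cutoff for a compound that rescues yeast growth under heat; inactive means the rest, inconclusive results apart.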 Some results are limits rather than exact numbers.

The subject of this assay is S. cerevisiae Burl-1 ts mutant growth, BacTiter-Glo, 38.5C 24 h. Put plainly: growth induction of Burl-1 ts yeast mutant, dose response, counter-screen for SUMOylation pathway inhibitor project, whole organism, S. cerevisiae, luminescence (AID 463199). (A counterscreen serves to expose hits that act by an unwanted route or on another target.)
As for `CN1C(=O)/C(=C/c2ccc(OCc3ccccc3F)cc2)NC1=S`, the AC50 is > 42 µM (inactive).

Take `O=C(c1ccccc1F)N1CCCc2ccccc21`: the AC50 is > 42 µM (inactive).

For `COc1ccc2c(c1)OC[C@H]1[C@H]2N2C(=O)c3cc(F)ccc3NC(=O)[C@@]2(C)[C@H]1c1ccccc1`, the AC50 is > 42 µM (inactive).

As for `Cc1ccc(S(=O)(=O)NNC(=O)c2cc3cc4ccccc4nc3s2)cc1`, the AC50 is > 42 µM (inactive).

For `CCCN(CC1CC1)C(=O)COc1ccccc1C(=O)NCc1ccccc1`, the AC50 was > 42 µM (inactive).

Turning to `O=C(CCCC(=O)N(CC(=O)NC1CCCC1)c1cccc(F)c1)Nc1ccccn1`, the AC50 is > 42 µM (inactive).

As for `Cc1cc2ncc(C(=O)N=CN(C)C)cn2n1`, the AC50 was > 42 µM (inactive).

As to `COC(=O)[C@@H]1[C@@H](C(=O)OC)C2(c3ccccc3-c3ccccc32)N(c2ccc(Cl)cc2)N1C#N`, the AC50 was > 42 µM (inactive).

Regarding `c1ccc2c(C[C@@H]3CNCCN3CCCCC3CCCCC3)cccc2c1`, the AC50 was > 42 µM (inactive).

`COc1ccc(CNC(=O)c2cc(=O)c3cc(C)cc(C)c3o2)cc1`: the AC50 was > 42 µM (inactive).

In the case of `CCS(=O)(=O)N1CCC(C(=O)N2CCc3ccccc3C2)CC1`, the AC50 is > 42 µM (inactive).

As for `COc1ccc(CC(=O)NCCN2CCOCC2)cc1`, the AC50 was > 42 µM (inactive).

With `CCOC(=O)N1CCN(C(=O)CNC(=O)c2nn(-c3ccc(OC)c(OC)c3)c(=O)c3ccccc23)CC1`, the AC50 is > 42 µM (inactive).

Turning to `O=C(CCC1CCCN(C(=O)Cc2cccc(F)c2)C1)N1CCN(c2ccccn2)CC1` (stereo not drawn), the AC50 was > 42 µM (inactive).

On to `O=C(CCC(F)(F)F)N1CCCC(CO)(CCc2ccccc2)C1` (stereo not drawn), for which the AC50 was > 42 µM (inactive).

As to `Cc1c(C(=O)OCC(=O)Nc2ccc(S(N)(=O)=O)cc2)oc2c1ccc1ccccc12`, the AC50 is > 42 µM (inactive).

As to `O=C(CN1CCN(c2nc(-c3ccccc3)cs2)CC1)NNC(=O)c1ccc(Br)cc1`, the AC50 is > 42 µM (inactive).

Consider `CCCNC(=O)CN(c1ccc(F)cc1)S(=O)(=O)c1ccc2c(c1)OCCO2`, for which the AC50 is > 42 µM (inactive).

Turning to `C[C@@]12C(=O)Nc3cc(F)ccc3C(=O)N1[C@H]1c3ccccc3OC[C@@H]1[C@@H]2c1ccccc1`, the AC50 is > 42 µM (inactive).

On to `CC(=O)Nc1cccc(OCC(O)Cn2c(C)nc3ccccc32)c1` (stereo not drawn), for which the AC50 is > 42 µM (inactive).

Regarding `Cc1ccc(S(=O)(=O)N2CCCC2C(=O)NCCc2ccccc2)cc1` (stereo not drawn), the AC50 is > 42 µM (inactive).

In the case of `O=C(Nc1ccc([N+](=O)[O-])cn1)C1CC1`, the AC50 is > 42 µM (inactive).

As for `CC(=O)c1c(N)[nH]c(-c2ccccc2)nc1=S`, the AC50 was > 42 µM (inactive).

In the case of `Cc1ccc(NC(=S)N2CCN(Cc3ccc4c(c3)OCO4)CC2)c(C)c1`, the AC50 was > 42 µM (inactive).

Consider `O=C(COC(=O)c1ccc([N+](=O)[O-])o1)Nc1ncc(Cl)cc1Cl`, for which the AC50 was > 42 µM (inactive).

In the case of `CCOC(=O)c1nc(Nc2ccccc2CC)c2ccccc2n1`, the AC50 was > 42 µM (inactive).

Regarding `COc1ccc2c(C(=O)CN3CC(C)OC(C)C3)c[nH]c2c1` (stereo not drawn), the AC50 is > 42 µM (inactive).

In the case of `CCN(CC1COc2ccccc2O1)C(=S)NCCCN(C)C` (stereo not drawn), the AC50 is > 42 µM (inactive).

With `Cc1ccc(C(=O)N/C(=C\c2cccs2)C(=O)NCCc2c[nH]c3ccccc23)cc1`, the AC50 is > 42 µM (inactive).

For the molecule `CCN(CC)CC(=O)Nc1ccc(Oc2ccc(NC(=O)CN(CC)CC)cc2)cc1`, the AC50 is > 42 µM (inactive).

Regarding `OCC1(Cc2cccc(Cl)c2)CCCN(Cc2ccc(F)c(F)c2)C1` (stereo not drawn), the AC50 was > 42 µM (inactive).

In the case of `CC(OC(=O)c1cc(S(=O)(=O)N2CCOCC2)ccc1F)C(=O)NCc1ccc2c(c1)OCO2` (stereo not drawn), the AC50 was > 42 µM (inactive).

For `COc1ccc(NC(=O)c2ccc(-n3cncn3)c([N+](=O)[O-])c2)cc1`, the AC50 was > 21 µM (inactive).
